The source of these data is article PMC7911614, “Development and Characterization of a Tacrolimus/Hydroxypropyl-β-Cyclodextrin Eye Drop” (Pharmaceutics, 2021).

On the set-up of series [1]: method as in PMID 29751694. The note with it: cited from earlier work.
Series [2] is described as follows: NMR saturation transfer difference (STD) study of tacrolimus/HPβCD binding. The conditions noted are these: D2O, read-out: Kd of tacrolimus/HPβCD binding equilibrium. How it is done: NMR experiments were conducted at two different temperature conditions, 278 and 298 K, on a Bruker NEO 17.6 T spectrometer (proton resonance 750 MHz) (Billerica, MA, USA), equipped with a ^1H/^13C/^15N triple resonance PA-TXI probe with a deuterium lock channel and a shielded Pulse Field Gradient (PFG) z-gradient. The spectrometer control software was TopSpin 4.0 (Billerica, MA, USA, 2020). The reported chemical shifts are referenced to the lock deuterium solvent. Spectra were processed and analyzed using Mestrenova v14.0 software (Mestrelab Research S.L., Santiago de Compostela, Spain, 2019).
One-dimensional saturation transfer difference ^1H spectra (STD) were measured. The experiment consisted of a selective saturation pulse train, a WET selective solvent suppression module and a 90-degree hard-pulse followed by fid (free induction decay) acquisition. The selective saturation consisted of a train of soft Gaussian-shaped pulses of 50-ms duration with a 1-ms interpulse delay. The selective saturation was applied during 2 s at a specific frequency of the ^1H spectrum, covering a region of the spectrum of ± 125 Hz around the chosen frequency (i.e., ± 0.17 ppm in a 750 spectrometer). The STD^off saturation was applied at 20 ppm. […] The STD^on and STD^off scans were measured in alternate scans and subtracted by the phase cycling, providing the subtracted STD^off-on spectra. […]

Series [3] relates to T cell proliferation. Details: method as in PMID 22511024. The note with it: cited from earlier work.
Series [4] is described as follows: physchem. The format is physicochemical. How it is done: A phase solubility diagram was used to estimate the stability constant (K) of the tacrolimus/HPβCD inclusion complex. The solubility measurements were carried out following the previous work of our research group, described by Anguiano-Igea et al.. This protocol was adjusted to the Higuchi and Connors phase solubility model. A solubility study was carried out by adding an excess amount of the tacrolimus powder to MilliQ® aqueous solutions containing increasing concentrations of HPβCD (from 0 to 400 mg/mL). The vials containing these suspensions were then shaken in a VWR incubated mini-shaker (VWR International, Radnor, PA, USA) at 25 °C and 250 rpm for 7 days until reaching an equilibrium. […]
Tacrolimus concentration was determined for each sample using an HPLC system (Agilent 1260 series; Agilent Technologies®, Santa Clara, CA, USA) equipped with a Diode Array Detector HS, a solvent delivery quaternary pump system, 400 bar maximum pressure and an autosampler. […] A 210-nm wavelength was employed for the tacrolimus quantification. […]
These constants values were calculated using the following Equation (1):S = S0 +(K1:1·S0 + K1:1·K1:2·S0·[HPβCD])·[HPβCD],(1) where S is the total solubility, S0 is the free drug solubility and K1:1 and K1:2 are the stability constants of the complex tacrolimus/HPβCD. […]

Details of series [5]: method as in PMID 32599134, PMID 24015381. The conditions noted are these: cited from earlier work.

In brackets after ≈: the same amount, converted by molar mass. Like-named read-outs stand apart in the source and are kept apart here. Bounds are passed on as bounds.

`CC(O)COC[C@H]1O[C@@H]2O[C@H]3[C@H](O)[C@@H](O)[C@@H](O[C@H]4[C@H](O)[C@@H](O)[C@@H](O[C@H]5[C@H](O)[C@@H](O)[C@@H](O[C@H]6[C@H](O)[C@@H](O)[C@@H](O[C@H]7[C@H](O)[C@@H](O)[C@@H](O[C@H]8[C@H](O)[C@@H](O)[C@@H](O[C@H]1[C@H](O)[C@H]2O)O[C@@H]8COCC(C)O)O[C@@H]7COCC(C)O)O[C@@H]6COCC(C)O)O[C@@H]5COCC(C)O)O[C@@H]4COCC(C)O)O[C@@H]3COCC(C)O` (stereo partly drawn) [HPβCD, 2-hydroxypropyl-β-cyclodextrin]: the “surface tension in solution” value in series [1] is 54.8–57.5 mN/m.
Take `C=CC[C@@H]1/C=C(\C)C[C@H](C)C[C@H](OC)[C@H]2O[C@@](O)(C(=O)C(=O)N3CCCC[C@H]3C(=O)O[C@H](/C(C)=C/[C@@H]3CC[C@@H](O)[C@H](OC)C3)[C@H](C)[C@@H](O)CC1=O)[C@H](C)C[C@@H]2OC` [Tacrolimus]: the Kd in series [2] (278 K, inferred from STD response) was under 1 mM; in series [2] (298 K, inferred from absence of STD response), over 10 mM. Besides, the “immunosuppressive activity, times more potent than cyclosporine A” value in series [3] was 100 times. Also, the “K1:2 stability constant of tacrolimus/HPβCD complex” value in series [4] came out at 2.1 ± 0.6 M⁻¹. Further, the solubility (usually how much of the substance goes into solution per volume) at 7 days in series [4] turned out to be 4 ± 0.67 µg/mL (≈ 4.97 µM). Further, the water solubility in series [5] is 1 to 12 µg/mL.
